Experimental findings from ChEMBL document CHEMBL1909046, “DrugMatrix in vitro pharmacology data” are described below.

Beta-3 adrenergic receptor, sequence (P13945 whole entry): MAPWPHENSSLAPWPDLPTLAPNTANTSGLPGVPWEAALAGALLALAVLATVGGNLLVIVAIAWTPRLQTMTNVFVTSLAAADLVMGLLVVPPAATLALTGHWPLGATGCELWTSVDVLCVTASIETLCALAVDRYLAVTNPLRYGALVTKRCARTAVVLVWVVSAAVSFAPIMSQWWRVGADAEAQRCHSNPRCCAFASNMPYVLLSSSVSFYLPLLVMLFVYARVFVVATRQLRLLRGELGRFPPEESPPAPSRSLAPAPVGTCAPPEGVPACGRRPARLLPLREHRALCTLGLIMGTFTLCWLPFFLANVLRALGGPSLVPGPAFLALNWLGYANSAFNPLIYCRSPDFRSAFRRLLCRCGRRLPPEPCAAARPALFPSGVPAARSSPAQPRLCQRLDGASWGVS
5-hydroxytryptamine receptor 6, sequence (P50406 whole entry): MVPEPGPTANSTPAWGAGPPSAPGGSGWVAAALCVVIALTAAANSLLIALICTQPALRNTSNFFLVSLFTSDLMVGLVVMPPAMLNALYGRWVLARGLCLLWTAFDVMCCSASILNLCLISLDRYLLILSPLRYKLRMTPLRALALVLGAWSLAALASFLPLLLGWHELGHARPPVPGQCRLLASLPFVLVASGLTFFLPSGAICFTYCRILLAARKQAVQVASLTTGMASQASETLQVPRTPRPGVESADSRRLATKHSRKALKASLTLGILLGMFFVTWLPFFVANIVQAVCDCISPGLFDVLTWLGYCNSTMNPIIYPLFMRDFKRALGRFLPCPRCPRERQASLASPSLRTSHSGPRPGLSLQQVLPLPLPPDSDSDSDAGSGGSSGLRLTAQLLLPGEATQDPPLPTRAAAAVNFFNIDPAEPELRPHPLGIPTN

One test deals with 5-hydroxytryptamine receptor 2B (Homo sapiens, UniProt P41595).
5-hydroxytryptamine receptor 2B, sequence (P41595 whole entry): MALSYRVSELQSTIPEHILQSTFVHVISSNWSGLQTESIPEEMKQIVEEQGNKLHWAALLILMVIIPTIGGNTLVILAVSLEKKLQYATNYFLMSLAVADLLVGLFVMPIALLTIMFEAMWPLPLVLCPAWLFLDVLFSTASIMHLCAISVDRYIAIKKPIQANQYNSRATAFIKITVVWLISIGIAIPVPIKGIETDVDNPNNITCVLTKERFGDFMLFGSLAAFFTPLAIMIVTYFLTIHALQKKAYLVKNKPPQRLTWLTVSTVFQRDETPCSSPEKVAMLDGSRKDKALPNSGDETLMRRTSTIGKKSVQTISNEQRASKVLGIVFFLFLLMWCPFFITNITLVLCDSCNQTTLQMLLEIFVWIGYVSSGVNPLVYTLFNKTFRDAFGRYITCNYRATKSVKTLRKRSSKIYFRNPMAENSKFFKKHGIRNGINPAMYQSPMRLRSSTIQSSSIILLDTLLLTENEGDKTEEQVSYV
Assay: not given
As to conditions: cho-k1. It counts as cell membranes, CHO-K1, Membrane.
Turning to `O=P1(NCCCl)OCCCN1CCCl` (stereo unspecified) [IFOSFAMIDE], the IC50 result is reported as “Not Active”.
On the same count and under the same terms, in the case of `CC(C)NC[C@H](O)COc1cccc2[nH]ccc12` it was “Not Active”; in that of `NCC(=O)O` [GLYCINE], “Not Active”.
Same read-out and setting: with `O=C1OCCN1/N=C/c1ccc([N+](=O)[O-])o1` [FURAZOLIDONE] the entry was “Not Active”.

Another test deals with T1, Alpha-1B adrenergic receptor (Rattus norvegicus, UniProt P15823).
T1 sequence (P15823 whole entry): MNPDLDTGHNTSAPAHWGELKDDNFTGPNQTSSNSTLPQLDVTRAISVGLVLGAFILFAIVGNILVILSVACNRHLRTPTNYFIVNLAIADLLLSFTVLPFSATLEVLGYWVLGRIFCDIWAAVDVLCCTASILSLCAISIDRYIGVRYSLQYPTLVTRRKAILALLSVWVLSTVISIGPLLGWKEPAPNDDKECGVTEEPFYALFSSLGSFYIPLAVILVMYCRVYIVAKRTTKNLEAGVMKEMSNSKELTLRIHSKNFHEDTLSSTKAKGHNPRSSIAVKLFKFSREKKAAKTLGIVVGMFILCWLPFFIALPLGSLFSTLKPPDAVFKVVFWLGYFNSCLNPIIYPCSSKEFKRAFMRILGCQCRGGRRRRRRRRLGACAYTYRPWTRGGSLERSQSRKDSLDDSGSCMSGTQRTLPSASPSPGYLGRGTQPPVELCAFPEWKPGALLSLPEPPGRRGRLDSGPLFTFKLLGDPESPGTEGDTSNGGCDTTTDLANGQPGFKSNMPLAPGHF
Kind of test: DRUGMATRIX: Alpha-1B adrenergic receptor radioligand binding (ligand: prazosin). It counts as cell membranes, Wistar, Liver, Membrane. The conditions noted are these: Not Active = under 50% inhibition at 10 µM.
As to `O=P1(NCCCl)OCCCN1CCCl` (stereo unspecified) [IFOSFAMIDE], the IC50 result was “Not Active”.
`CC(C)NC[C@H](O)COc1cccc2[nH]ccc12`: the IC50 entry is “Not Active”.
With `NCC(=O)O` [GLYCINE], the IC50 result is “Not Active”.
Same read-out and setting: in the case of `O=C1OCCN1/N=C/c1ccc([N+](=O)[O-])o1` [FURAZOLIDONE] it was “Not Active”.

The target of the next test is T2, Polyunsaturated fatty acid lipoxygenase ALOX15 (Oryctolagus cuniculus, UniProt P12530).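 Note: inhibition of 15-lipoxygenase enzyme activity measured with linoleic acid as the substrate; in other assays of this panel Not Active means under 50% inhibition at 10 µM.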
T2 sequence (P12530 whole entry): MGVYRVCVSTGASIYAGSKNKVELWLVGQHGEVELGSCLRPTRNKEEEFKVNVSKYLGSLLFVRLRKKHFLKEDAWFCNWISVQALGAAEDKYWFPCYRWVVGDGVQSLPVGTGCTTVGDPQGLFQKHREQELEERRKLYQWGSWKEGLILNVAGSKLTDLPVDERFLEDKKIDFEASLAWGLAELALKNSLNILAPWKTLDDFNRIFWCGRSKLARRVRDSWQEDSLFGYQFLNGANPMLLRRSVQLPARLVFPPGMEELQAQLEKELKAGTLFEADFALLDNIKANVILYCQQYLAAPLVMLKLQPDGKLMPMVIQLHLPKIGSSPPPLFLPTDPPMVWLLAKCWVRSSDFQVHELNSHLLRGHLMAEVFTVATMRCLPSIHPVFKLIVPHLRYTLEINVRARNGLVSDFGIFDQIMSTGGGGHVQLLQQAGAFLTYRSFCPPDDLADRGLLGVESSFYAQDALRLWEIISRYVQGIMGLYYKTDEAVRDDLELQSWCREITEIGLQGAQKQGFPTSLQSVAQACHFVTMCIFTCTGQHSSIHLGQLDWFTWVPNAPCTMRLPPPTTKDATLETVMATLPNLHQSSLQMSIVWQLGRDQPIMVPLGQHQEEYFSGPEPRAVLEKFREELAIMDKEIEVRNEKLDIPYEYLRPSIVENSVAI
Description: biochemical. As to conditions: reticulocytes. It counts as tissue-based, Reticulocytes.
Consider `O=P1(NCCCl)OCCCN1CCCl` (stereo unspecified) [IFOSFAMIDE], for which the IC50 result is “Not Active”.
Consider `CC(C)NC[C@H](O)COc1cccc2[nH]ccc12`, for which the IC50 entry is listed as “Not Active”.
Still for that read-out and setting: with `NCC(=O)O` [GLYCINE] the entry was “Not Active”; with `O=C1OCCN1/N=C/c1ccc([N+](=O)[O-])o1` [FURAZOLIDONE], “Not Active”.

The target in another test is D(1A) dopamine receptor (Homo sapiens, UniProt P21728). Description: DRUGMATRIX: Dopamine D1 radioligand binding (ligand: [3H] SCH-23390). It counts as cell membranes, CHO, Membrane. As to conditions: cho; Not Active = under 50% inhibition at 10 µM.
D(1A) dopamine receptor, sequence (P21728 whole entry): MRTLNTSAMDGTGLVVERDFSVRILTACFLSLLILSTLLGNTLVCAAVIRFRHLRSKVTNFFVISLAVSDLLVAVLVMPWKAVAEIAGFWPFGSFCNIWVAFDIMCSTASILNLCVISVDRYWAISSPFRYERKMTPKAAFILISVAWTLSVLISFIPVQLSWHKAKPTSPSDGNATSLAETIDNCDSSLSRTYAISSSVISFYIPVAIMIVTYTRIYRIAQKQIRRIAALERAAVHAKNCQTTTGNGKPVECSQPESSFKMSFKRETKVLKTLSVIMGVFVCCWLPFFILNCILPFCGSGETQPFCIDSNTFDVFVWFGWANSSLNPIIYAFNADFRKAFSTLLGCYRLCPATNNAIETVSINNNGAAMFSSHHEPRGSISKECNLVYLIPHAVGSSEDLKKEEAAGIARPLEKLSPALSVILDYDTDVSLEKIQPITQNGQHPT
As for `O=P1(NCCCl)OCCCN1CCCl` (stereo unspecified) [IFOSFAMIDE], the IC50 entry is recorded as “Not Active”.
The same measure, in the same setting: in the case of `CC(C)NC[C@H](O)COc1cccc2[nH]ccc12` it was “Not Active”.
Regarding `NCC(=O)O` [GLYCINE], the IC50 entry is “Not Active”.
For the compound `O=C1OCCN1/N=C/c1ccc([N+](=O)[O-])o1` [FURAZOLIDONE], the IC50 entry is on record as “Not Active”.

The next test concerns the target Beta-3 adrenergic receptor (Homo sapiens, UniProt P13945). Description: DRUGMATRIX: Adrenergic beta3 radioligand binding (ligand: [125I] Cyanopindolol). It counts as cell membranes, HEK293, Membrane. As to conditions: hek293; Not Active = under 50% inhibition at 10 µM.
As for `O=P1(NCCCl)OCCCN1CCCl` (stereo unspecified) [IFOSFAMIDE], the IC50 entry was “Not Active”.
Turning to `NCC(=O)O` [GLYCINE], the IC50 entry was “Not Active”.
Turning to `O=C1OCCN1/N=C/c1ccc([N+](=O)[O-])o1` [FURAZOLIDONE], the IC50 entry is listed as “Not Active”.

A further test deals with T3, C-X-C chemokine receptor type 2 (Homo sapiens, UniProt P25025).
T3 sequence (P25025 whole entry): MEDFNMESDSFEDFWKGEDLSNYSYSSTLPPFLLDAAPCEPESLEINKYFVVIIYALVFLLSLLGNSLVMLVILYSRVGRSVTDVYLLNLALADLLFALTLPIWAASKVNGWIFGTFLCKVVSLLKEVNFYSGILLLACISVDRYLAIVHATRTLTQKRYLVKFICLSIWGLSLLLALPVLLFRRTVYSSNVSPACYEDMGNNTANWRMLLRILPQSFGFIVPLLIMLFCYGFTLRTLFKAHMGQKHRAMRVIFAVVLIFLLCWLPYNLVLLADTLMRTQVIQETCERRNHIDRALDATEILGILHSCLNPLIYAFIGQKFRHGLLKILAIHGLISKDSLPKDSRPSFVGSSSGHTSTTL
Assay: not given
The class given is cell membranes, Membrane. As to conditions: cho-k1.
In the case of `O=P1(NCCCl)OCCCN1CCCl` (stereo unspecified) [IFOSFAMIDE], the IC50 result is reported as “Not Active”.
Turning to `CC(C)NC[C@H](O)COc1cccc2[nH]ccc12`, the IC50 result is reported as “Not Active”.
Take `NCC(=O)O` [GLYCINE]: the IC50 result is recorded as “Not Active”.
The same measure, in the same setting: with `O=C1OCCN1/N=C/c1ccc([N+](=O)[O-])o1` [FURAZOLIDONE] the entry was “Not Active”.

Test system in a further test: not listed separately
Description: DRUGMATRIX: Calcium Channel Type L, Benzothiazepine radioligand binding (ligand: [3H] Diltiazem). The class given is cell membranes, Rattus norvegicus, Wistar, Brain, Membrane. The conditions noted are these: Not Active = under 50% inhibition at 10 µM.
For `O=P1(NCCCl)OCCCN1CCCl` (stereo unspecified) [IFOSFAMIDE], the IC50 result is given as “Not Active” and the Ki entry is “Not Active”.
Consider `CC(C)NC[C@H](O)COc1cccc2[nH]ccc12`, for which the IC50 entry is recorded as “Not Active” and the Ki entry is on record as “Not Active”.
Turning to `NCC(=O)O` [GLYCINE], the IC50 result was “Not Active” and the Ki entry is reported as “Not Active”.
In the case of `O=C1OCCN1/N=C/c1ccc([N+](=O)[O-])o1` [FURAZOLIDONE], the IC50 entry is reported as “Not Active” and the Ki result was “Not Active”.

Another test deals with Histamine H2 receptor (Homo sapiens, UniProt P25021).
Histamine H2 receptor, sequence (P25021 whole entry): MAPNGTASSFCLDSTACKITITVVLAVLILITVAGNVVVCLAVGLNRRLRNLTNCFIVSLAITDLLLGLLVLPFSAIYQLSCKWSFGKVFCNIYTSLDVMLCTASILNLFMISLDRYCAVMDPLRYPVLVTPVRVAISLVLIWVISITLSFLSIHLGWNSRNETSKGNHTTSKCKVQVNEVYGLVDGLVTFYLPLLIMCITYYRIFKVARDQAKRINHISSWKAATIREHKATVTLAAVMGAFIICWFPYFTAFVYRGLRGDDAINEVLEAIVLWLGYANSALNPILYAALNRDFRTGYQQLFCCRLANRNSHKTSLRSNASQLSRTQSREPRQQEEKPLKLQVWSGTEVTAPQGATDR
Assay: not given
It counts as cell membranes, CHO-K1, Membrane. As to conditions: cho-k1.
Regarding `O=P1(NCCCl)OCCCN1CCCl` (stereo unspecified) [IFOSFAMIDE], the IC50 result was “Not Active”.
Same read-out and setting: with `CC(C)NC[C@H](O)COc1cccc2[nH]ccc12` the entry was “Not Active”; with `NCC(=O)O` [GLYCINE], “Not Active”.
Still for that read-out and setting: in the case of `O=C1OCCN1/N=C/c1ccc([N+](=O)[O-])o1` [FURAZOLIDONE] it was “Not Active”.

Test system in another test: not listed separately
Kind of test: DRUGMATRIX: GABAA, Chloride Channel, TBOB radioligand binding (ligand: [3H] TBOB). The class given is cell membranes, Rattus norvegicus, Wistar, Cerebral cortex, Membrane. The conditions noted are these: Not Active = under 50% inhibition at 10 µM.
`O=P1(NCCCl)OCCCN1CCCl` (stereo unspecified) [IFOSFAMIDE]: the IC50 entry is listed as “Not Active” and the Ki entry is recorded as “Not Active”.
For the compound `CC(C)NC[C@H](O)COc1cccc2[nH]ccc12`, the IC50 entry is recorded as “Not Active” and the Ki entry is “Not Active”.
For the compound `NCC(=O)O` [GLYCINE], the IC50 entry is “Not Active” and the Ki result is recorded as “Not Active”.
For `O=C1OCCN1/N=C/c1ccc([N+](=O)[O-])o1` [FURAZOLIDONE], the IC50 entry is reported as “Not Active” and the Ki result is given as “Not Active”.

The target in a further test is T4, Adenosine receptor A3 (Homo sapiens, UniProt P0DMS8).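 Note: radioligand binding assay with AB-MECA serving as the labeled ligand; in other assays of this panel Not Active means under 50% inhibition at 10 µM.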
T4 sequence (P0DMS8 whole entry): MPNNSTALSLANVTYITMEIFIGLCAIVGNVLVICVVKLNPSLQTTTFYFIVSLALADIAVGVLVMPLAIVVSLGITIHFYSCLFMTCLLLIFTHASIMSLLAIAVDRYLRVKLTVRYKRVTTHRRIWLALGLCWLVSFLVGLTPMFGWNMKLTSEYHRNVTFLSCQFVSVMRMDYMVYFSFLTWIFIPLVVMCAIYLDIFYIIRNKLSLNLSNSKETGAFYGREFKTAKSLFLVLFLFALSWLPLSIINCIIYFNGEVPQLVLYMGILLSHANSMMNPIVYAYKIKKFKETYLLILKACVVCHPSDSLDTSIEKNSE
Assay: not given
It counts as cell membranes, CHO-K1, Membrane. The conditions noted are these: cho-k1.
For the compound `O=P1(NCCCl)OCCCN1CCCl` (stereo unspecified) [IFOSFAMIDE], the IC50 entry is given as “Not Active”.
In the case of `CC(C)NC[C@H](O)COc1cccc2[nH]ccc12`, the IC50 result is recorded as “Not Active”.
Consider `NCC(=O)O` [GLYCINE], for which the IC50 entry is on record as “Not Active”.
Consider `O=C1OCCN1/N=C/c1ccc([N+](=O)[O-])o1` [FURAZOLIDONE], for which the IC50 entry is on record as “Not Active”.

A further test addresses 5-hydroxytryptamine receptor 6 (Homo sapiens, UniProt P50406).
Assay: not given
It counts as cell membranes, HeLa, Membrane. As to conditions: hela.
As for `O=P1(NCCCl)OCCCN1CCCl` (stereo unspecified) [IFOSFAMIDE], the IC50 entry is “Not Active”.
With `CC(C)NC[C@H](O)COc1cccc2[nH]ccc12`, the IC50 result was “Not Active”.
The same measure, in the same setting: in the case of `NCC(=O)O` [GLYCINE] it was “Not Active”; in that of `O=C1OCCN1/N=C/c1ccc([N+](=O)[O-])o1` [FURAZOLIDONE], “Not Active”.
